Test results published in patent US8802597B2, “Herbicidal pyrimidines” (E I du Pont de Nemours and Company, priority 2003, dated 2014).
Read-outs that look alike come from different tables or passages of the source.

Legend:
Assay type in all cases: in vivo
[1] = tested on: chickweed (Stellaria media); assay: Test C postemergence; conditions: Stellaria media, post-emergence
How it was run: (§1)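 Rating scale 0–100: 0 means no effect, 100 complete control; taken visually 12 to 14 days post-treatment versus controls. Pre- and postemergence greenhouse applications, postemergence at 1- to 4-leaf stage, non-phytotoxic solvent with surfactant as carrier.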

[2] = tested on: giant foxtail (Setaria faberi); assay: Test A pre/postemergence; conditions: Setaria faberi, 240 h, read-out: Plant response rating, Foxtail, Giant; for pest or weed control at 500 g/ha: 500 g ai/ha; for pest or weed control at 2000 g/ha: 2000 g ai/ha
How it was run: (§2)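 Pre/post greenhouse screen; loam/sand soil; solvent + surfactant formulation; pre = directed soil spray at planting, post = 1–2 leaf plants, 2–10 cm; ~10 d; visual 0–100 rating vs untreated.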

[3] = tested on: barnyardgrass (Echinochloa crus-galli); assay: Test A pre/postemergence; conditions: Echinochloa crus-galli, 240 h, read-out: Plant response rating, Barnyardgrass; for pest or weed control at 500 g/ha: 500 g ai/ha; for pest or weed control at 2000 g/ha: 2000 g ai/ha
How it was run: as §2

[4] = tested on: morningglory (Ipomoea spp.); assay: Test A pre/postemergence; conditions: Ipomoea, 240 h, read-out: Plant response rating, Morningglory; for pest or weed control at 500 g/ha: 500 g ai/ha; for pest or weed control at 2000 g/ha: 2000 g ai/ha
How it was run: as §2

[5] = tested on: velvetleaf (Abutilon theophrasti); assay: Test A pre/postemergence; conditions: Abutilon theophrasti, 240 h, read-out: Plant response rating, Velvetleaf; for pest or weed control at 500 g/ha: 500 g ai/ha; for pest or weed control at 2000 g/ha: 2000 g ai/ha
How it was run: as §2

[6] = tested on: redroot pigweed (Amaranthus retroflexus); assay: Test A pre/postemergence; conditions: Amaranthus retroflexus, 240 h, read-out: Plant response rating, Pigweed; for pest or weed control at 500 g/ha: 500 g ai/ha; for pest or weed control at 2000 g/ha: 2000 g ai/ha
How it was run: as §2

[7] = tested on: crabgrass (Digitaria sanguinalis); assay: Test A pre/postemergence; conditions: Digitaria sanguinalis, 240 h, read-out: Plant response rating, Crabgrass; for pest or weed control at 500 g/ha: 500 g ai/ha; for pest or weed control at 2000 g/ha: 2000 g ai/ha
How it was run: as §2

[8] = tested on: goosegrass (Eleusine indica); assay: Test C pre/postemergence; conditions: Eleusine indica; for pest or weed control at 62 g/ha: 62 g ai/ha; for pest or weed control at 125 g/ha: 125 g ai/ha; for pest or weed control at 250 g/ha: 250 g ai/ha; for pest or weed control at 500 g/ha: 500 g ai/ha
How it was run: as §1

[9] = tested on: velvetleaf (Abutilon theophrasti); assay: Test C pre/postemergence; conditions: Abutilon theophrasti; for pest or weed control at 62 g/ha: 62 g ai/ha; for pest or weed control at 125 g/ha: 125 g ai/ha; for pest or weed control at 250 g/ha: 250 g ai/ha; for pest or weed control at 500 g/ha: 500 g ai/ha
How it was run: as §1

[10] = tested on: giant foxtail (Setaria faberii); assay: Test C pre/postemergence; conditions: Setaria faberi; for pest or weed control at 125 g/ha: 125 g ai/ha; for pest or weed control at 500 g/ha: 500 g ai/ha; for pest or weed control at 62 g/ha: 62 g ai/ha; for pest or weed control at 250 g/ha: 250 g ai/ha
How it was run: as §1

[11] = tested on: lambsquarters (Chenopodium album); assay: Test C pre/postemergence; conditions: Chenopodium album; for pest or weed control at 62 g/ha: 62 g ai/ha; for pest or weed control at 125 g/ha: 125 g ai/ha; for pest or weed control at 250 g/ha: 250 g ai/ha; for pest or weed control at 500 g/ha: 500 g ai/ha
How it was run: as §1

[12] = post-emergence, Postemergence, 0 to 100 scale (0 no effect, 100 complete control)
[13] = pre-emergence, Preemergence, 0 to 100 scale where 0 is no effect and 100 is complete control, approximately ten days
[14] = pre-emergence, Preemergence, 0 to 100 scale (0 no effect, 100 complete control)
[15] = post-emergence, Postemergence, scale 0 to 100 (0 no effect, 100 complete control), read-out: Goosegrass plant response rating
[16] = post-emergence, Postemergence, scale 0 to 100, read-out: Plant response rating, Goosegrass
[17] = pre-emergence, Preemergence, scale 0 to 100, read-out: Plant response rating, Goosegrass
[18] = post-emergence, Postemergence, scale 0 to 100 (0 no effect, 100 complete control), read-out: Velvetleaf plant response rating
[19] = post-emergence, Postemergence, scale 0 to 100, read-out: Plant response rating, Velvetleaf
[20] = pre-emergence, Preemergence, scale 0 to 100, read-out: Plant response rating, Velvetleaf
[21] = post-emergence, Postemergence, scale 0 to 100 (0 no effect, 100 complete control), read-out: Foxtail, Giant plant response rating
[22] = post-emergence, Postemergence, scale 0 to 100, read-out: Plant response rating, Foxtail, Giant
[23] = pre-emergence, Preemergence, scale 0 to 100, read-out: Plant response rating, Foxtail, Giant
[24] = post-emergence, Postemergence, scale 0 to 100 (0 no effect, 100 complete control), read-out: Lambsquarters plant response rating
[25] = post-emergence, Postemergence, scale 0 to 100, read-out: Plant response rating, Lambsquarters
[26] = pre-emergence, Preemergence, scale 0 to 100, read-out: Plant response rating, Lambsquarters

CCOC(=O)c1nc(C2CC2)nc(N)c1Br [Compound 1, ethyl 6-amino-5-bromo-2-cyclopropyl-4-pyrimidinecarboxylate]
pest or weed control at 62 g/ha ([1]; 62 g ai/ha, scale 0 to 100 (0 no effect, 100 complete control), read-out: Chickweed plant response rating): 80%
pest or weed control at 250 g/ha ([1]; 250 g ai/ha, scale 0 to 100, read-out: Plant response rating, Chickweed): 90%
pest or weed control at 500 g/ha [2, 12]: 70%
pest or weed control at 2000 g/ha [2, 12]: 75%
pest or weed control at 500 g/ha [2, 13]: 40%
pest or weed control at 2000 g/ha [2, 14]: 85%
pest or weed control at 500 g/ha [3, 12]: 75%
pest or weed control at 2000 g/ha [3, 12]: 75%
pest or weed control at 500 g/ha [3, 13]: 60%
pest or weed control at 2000 g/ha [3, 14]: 80%
pest or weed control at 500 g/ha [4, 12]: 95%
pest or weed control at 2000 g/ha [4, 12]: 100%
pest or weed control at 500 g/ha [4, 13]: 85%
pest or weed control at 2000 g/ha [4, 14]: 100%
pest or weed control at 500 g/ha [5, 12]: 95%
pest or weed control at 2000 g/ha [5, 12]: 85%
pest or weed control at 500 g/ha [5, 13]: 60%
pest or weed control at 2000 g/ha [5, 14]: 80%
pest or weed control at 500 g/ha [6, 12]: 100%
pest or weed control at 2000 g/ha [6, 12]: 100%
pest or weed control at 500 g/ha [6, 13]: 85%
pest or weed control at 2000 g/ha [6, 14]: 100%
pest or weed control at 500 g/ha [7, 12]: 65%
pest or weed control at 2000 g/ha [7, 12]: 80%
pest or weed control at 500 g/ha [7, 13]: 25%
pest or weed control at 2000 g/ha [7, 14]: 75%
pest or weed control at 62 g/ha [8, 15]: 0%
pest or weed control at 125 g/ha [8, 15]: 0%
pest or weed control at 250 g/ha [8, 16]: 40%
pest or weed control at 500 g/ha [8, 16]: 70%
pest or weed control at 62 g/ha ([8]; pre-emergence, Preemergence, scale 0 to 100, 0 no effect, 100 complete control, read-out: Plant response rating, Goosegrass): 0%
pest or weed control at 125 g/ha [8, 17]: 0%
pest or weed control at 250 g/ha [8, 17]: 10%
pest or weed control at 500 g/ha [8, 17]: 70%
pest or weed control at 62 g/ha [9, 18]: 85%
pest or weed control at 125 g/ha [9, 18]: 90%
pest or weed control at 250 g/ha [9, 19]: 100%
pest or weed control at 500 g/ha [9, 19]: 100%
pest or weed control at 62 g/ha ([9]; pre-emergence, Preemergence, scale 0 to 100, 0 no effect, 100 complete control, read-out: Plant response rating, Velvetleaf): 80%
pest or weed control at 125 g/ha [9, 20]: 90%
pest or weed control at 250 g/ha [9, 20]: 95%
pest or weed control at 500 g/ha [9, 20]: 100%
pest or weed control at 125 g/ha [10, 21]: 65%
pest or weed control at 500 g/ha [10, 22]: 90%
pest or weed control at 62 g/ha [10, 21]: 40%
pest or weed control at 250 g/ha [10, 22]: 80%
pest or weed control at 62 g/ha ([10]; pre-emergence, Preemergence, scale 0 to 100, 0 no effect, 100 complete control, read-out: Plant response rating, Foxtail, Giant): 0%
pest or weed control at 125 g/ha [10, 23]: 30%
pest or weed control at 250 g/ha [10, 23]: 90%
pest or weed control at 500 g/ha [10, 23]: 90%
pest or weed control at 62 g/ha [11, 24]: 100%
pest or weed control at 125 g/ha [11, 24]: 100%
pest or weed control at 250 g/ha [11, 25]: 100%
pest or weed control at 500 g/ha [11, 25]: 100%
pest or weed control at 62 g/ha ([11]; pre-emergence, Preemergence, scale 0 to 100, 0 no effect, 100 complete control, read-out: Plant response rating, Lambsquarters): 95%
pest or weed control at 125 g/ha [11, 26]: 100%
pest or weed control at 250 g/ha [11, 26]: 100%
pest or weed control at 500 g/ha [11, 26]: 100%
